Assay results reported in article PMC9127750, “Structure-based design of CDC42 effector interaction inhibitors for the treatment of cancer” (Cell reports, 2022).

System: WM3248 melanoma cells, 486 antibodies
Assay: Reverse phase protein arrays (RPPA);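 as to RPPA ACC1.R.C: ratio of treated to vehicle (0 µM) normalized linear protein signal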;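 as to RPPA AMPK.a2 pS345.R.V: ratio of treated to vehicle (0 µM) normalized linear protein signal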;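 as to RPPA AMPKa pT172.R.C: ratio of treated to vehicle (0 µM) normalized linear protein signal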;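 as to RPPA ASNS.R.V: ratio of treated to vehicle (0 µM) normalized linear protein signal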;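 as to RPPA Akt1.R.V: ratio of treated to vehicle (0 µM) normalized linear protein signal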;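 as to RPPA Atg5.R.C: ratio of treated to vehicle (0 µM) normalized linear protein signal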;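 as to RPPA Bim.R.V: ratio of treated to vehicle (0 µM) normalized linear protein signal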
Assay type: cell-based, Human
Conditions: 5 uM
Text: Pellets were snap frozen in liquid nitrogen and shipped to MD Anderson Cancer Center core RPPA facility for RPPA analysis (Table S5). Three biological replicates for each sample were generated.
Nomenclatures on the RPPA heatmaps: name_of_antibody.species_of_antibody.status_of_antibody. V - antibody validated; C - validation of antibody in progress; Q - antibody nonspecific; E – under evaluation; antibodies raised in M - mouse, G - goat, R - rabbit, or T - rat.

## CN(C)c1cccc(Nc2cc(-c3ccccc3)nc(C3CCNCC3)n2)c1 [ARN22089, N1,N1-dimethyl-N3-(6-phenyl-2-(piperidin-4-yl)pyrimidin-4-yl)benzene-1,3-diamine]
  RPPA MYH11.R.C Average: 0.914
  RPPA Myosin.IIa.R.C Average: 0.843
  RPPA Myosin.IIa_pS1943.R.V Average: 0.844
  RPPA Myt1.R.C Average: 1.051
  RPPA N.Cadherin.R.V Average: 1.019
  RPPA N.Ras.M.V Average: 1.035
  RPPA NAPSIN.A.R.C Average: 1.080
  RPPA NDRG1_pT346.R.V Average: 0.957
  RPPA NDUFB4.R.V Average: 0.959
  RPPA NRF2.R.C Average: 1.058
  RPPA Notch1.R.V Average: 0.994
  RPPA Notch1.cleaved.R.V Average: 0.989
  RPPA P.Cadherin.R.C Average: 1.050
  RPPA PAI.1.M.V Average: 0.977
  RPPA PAICS.R.C Average: 0.899
  RPPA PAK1.R.V Average: 1.006
  RPPA PAK4.R.V Average: 0.986
  RPPA PAK_pT423_T402.R.C Average: 0.921
  RPPA PAR.R.C Average: 1.327
  RPPA PARG.R.C Average: 1.012
  RPPA PARP.R.V Average: 1.023
  RPPA PAX6.R.V Average: 1.030
  RPPA PAX8.R.C Average: 0.962
  RPPA PCNA.M.C Average: 0.948
  RPPA PD.1.R.V Average: 0.992
  RPPA PD.L1.R.C Average: 1.064
  RPPA PDH.M.V Average: 1.049
  RPPA PDHA1.R.V Average: 1.079
  RPPA PDHK1.R.C Average: 1.057
  RPPA PDK1_pS241.R.V Average: 1.138
  RPPA PEA.15.R.V Average: 0.904
  RPPA PEA.15_pS116.R.V Average: 1.018
  RPPA PERK.R.V Average: 0.925
  RPPA PGM1.R.V Average: 0.979
  RPPA PHGDH.R.C Average: 1.081
  RPPA PHLPP.R.V Average: 0.922
  RPPA PI3K.p85.R.C Average: 0.987
  RPPA PI3K.p110.a.R.C Average: 1.057
  RPPA PI3K.p110.b.M.C Average: 0.980
  RPPA PKA.a.R.V Average: 1.013
  RPPA PKC.a.b.II_pT638_T641.R.V Average: 0.925
  RPPA PKC.b.II_pS660.R.V Average: 1.162
  RPPA PKCa.R.V Average: 1.462
  RPPA PKM2.R.C Average: 0.954
  RPPA PLC.gamma1.R.V Average: 0.970
  RPPA PLC.gamma1_pS1248.R.V Average: 1.060
  RPPA PLC.gamma2_pY759.R.V Average: 0.976
  RPPA PLK1.R.C Average: 0.920
  RPPA PMS2.R.V Average: 0.940
  RPPA PR.R.V Average: 1.032
  RPPA PRAS40.M.C Average: 0.991
  RPPA PRAS40_pT246.R.V Average: 1.028
  RPPA PRC1_pT481.R.C Average: 0.944
  RPPA Paxillin.R.C Average: 0.977
  RPPA Pdcd4.R.C Average: 1.156
  RPPA Porin.M.V Average: 0.936
  RPPA p21.R.C Average: 1.048
  RPPA p27.Kip1.R.C Average: 0.948
  RPPA p27_pT157.R.C Average: 0.943
  RPPA p27_pT198.R.V Average: 1.103
  RPPA p38.MAPK.R.V Average: 1.062
  RPPA p38.MAPK._pT180_Y182.R.V Average: 1.580
  RPPA p38.a.M.V Average: 0.984
  RPPA p44.42.MAPK.R.V Average: 0.980
  RPPA p53.R.C Average: 1.052
  RPPA p70.S6K1.R.V Average: 0.998
  RPPA p70.S6K_pT389.R.V Average: 1.143
  RPPA p90RSK_pT573.R.C Average: 0.930
5W1
  RPPA A.Raf.R.V: 1.057
  RPPA A.Raf_pS299.R.C: 0.952
  RPPA ACC1.R.C: 1.201
  RPPA ACC_pS79.R.V: 1.224
  RPPA ACLY_pS455.R.V: 1.273
  RPPA ACSL1.R.V: 0.847
  RPPA ACVRL1.R.C: 0.930
  RPPA ADAR1.M.V: 0.910
  RPPA ALKBH5.R.V: 0.866
  RPPA AMPK.a2_pS345.R.V: 1.146
  RPPA AMPKa.R.C: 1.108
  RPPA AMPKa_pT172.R.C: 2.494
  RPPA AR.R.V: 1.056
  RPPA ARID1A.R.C: 0.880
  RPPA ASNS.R.V: 0.847
  RPPA ATM.R.V: 1.285
  RPPA ATM_pS1981.R.V: 0.930
  RPPA ATP5A.M.C: 0.983
  RPPA ATP5H.R.V: 0.890
  RPPA ATR.R.V: 0.910
  RPPA ATRX.R.C: 1.060
  RPPA ATR_pS428.R.C: 1.111
  RPPA AceCS1.R.V: 0.974
  RPPA Akt1.R.V: 1.150
  RPPA Akt1_pS473.R.V: 1.251
  RPPA Akt2.R.V: 1.156
  RPPA Akt2_pS474.R.C: 1.400
  RPPA Akt.R.V: 1.121
  RPPA Akt_pS473.R.V: 1.390
  RPPA Akt_pT308.R.V: 1.046
  RPPA Ambra1_pS52.R.C: 0.943
  RPPA Annexin.VII.M.V: 0.883
  RPPA Atg4B.R.C: 1.033
  RPPA Atg5.R.C: 1.001
  RPPA Atg7.R.V: 0.986
  RPPA Aurora.A.R.C: 0.575
  RPPA Aurora.ABC_pT288_pT232_pT198.R.C: 0.881
  RPPA Aurora.B.R.V: 0.940
  RPPA Axl.R.V: 1.329
  RPPA B7.H3.R.C: 0.986
  RPPA B7.H4.R.C: 1.110
  RPPA B.Raf.R.C: 1.153
  RPPA BAP1.M.V: 0.943
  RPPA BCL2A1.R.V: 1.060
  RPPA BMK1.Erk5_pT218_Y220.R.V: 0.857
  RPPA BRCA1.M.C: 0.962
  RPPA BRD4.R.V: 0.959
  RPPA Bad_pS112.R.V: 1.171
  RPPA Bak.R.C: 1.077
  RPPA Bax.R.V: 0.955
  RPPA Bcl2.R.C: 0.855
  RPPA Beclin.R.C: 0.863
  RPPA BiP.GRP78.M.C: 0.936
  RPPA Bim.R.V: 1.056
  RPPA X4E.BP1.R.V: 1.448
  RPPA X4E.BP1_pS65.R.V: 0.917
  RPPA X14.3.3.zeta.R.V: 0.934
  RPPA X14.3.3βR.V: 0.934
  RPPA X53BP1.R.V: 1.104
  RPPA b.Actin.R.C: 0.885
  RPPA b.Catenin.R.V: 0.881
  RPPA b.Catenin_pT41_S45.R.V: 1.099
  RPPA c.Abl.R.V: 1.227
  RPPA c.Abl_pY412.R.C: 1.133
  RPPA c.IAP2.R.C: 0.965
5W3
  RPPA A.Raf.R.V: 1.155
  RPPA A.Raf_pS299.R.C: 1.022
  RPPA ACC1.R.C: 0.834
  RPPA ACC_pS79.R.V: 0.685
  RPPA ACLY_pS455.R.V: 0.716
  RPPA ACSL1.R.V: 0.628
  RPPA ACVRL1.R.C: 0.953
  RPPA ADAR1.M.V: 1.141
  RPPA ALKBH5.R.V: 0.830
  RPPA AMPK.a2_pS345.R.V: 1.116
  RPPA AMPKa.R.C: 1.027
  RPPA AMPKa_pT172.R.C: 0.821
  RPPA AR.R.V: 1.102
  RPPA ARID1A.R.C: 1.193
  RPPA ASNS.R.V: 1.291
  RPPA ATM.R.V: 1.157
  RPPA ATM_pS1981.R.V: 0.939
  RPPA ATP5A.M.C: 0.233
  RPPA ATP5H.R.V: 0.791
  RPPA ATR.R.V: 0.960
  RPPA ATRX.R.C: 1.213
  RPPA ATR_pS428.R.C: 1.112
  RPPA AceCS1.R.V: 0.718
  RPPA Akt1.R.V: 0.726
  RPPA Akt1_pS473.R.V: 0.998
  RPPA Akt2.R.V: 0.876
  RPPA Akt2_pS474.R.C: 1.140
  RPPA Akt.R.V: 0.848
  RPPA Akt_pS473.R.V: 1.107
